Test results from US7799785B2, “Substituted tetracyclic tetahydrofuran, pyrrolidine and tetrahydrothiophene derivatives” (Janssen Pharmaceutica NV, priority 2004, dated 2010).
pIC50: −log10 of the molar value.

biological target: T1, NET (Rattus norvegicus, UniProt Q63380); assay: In vitro determination of NET reuptake inhibition ([3H]Nixosetine binding, rat brain cortex membranes)
T1 construct: Cortex from rat brain was collected and homogenised; from tissue; host or cells: rat brain cortex homogenate/membranes
T1 sequence (Q63380 1-617): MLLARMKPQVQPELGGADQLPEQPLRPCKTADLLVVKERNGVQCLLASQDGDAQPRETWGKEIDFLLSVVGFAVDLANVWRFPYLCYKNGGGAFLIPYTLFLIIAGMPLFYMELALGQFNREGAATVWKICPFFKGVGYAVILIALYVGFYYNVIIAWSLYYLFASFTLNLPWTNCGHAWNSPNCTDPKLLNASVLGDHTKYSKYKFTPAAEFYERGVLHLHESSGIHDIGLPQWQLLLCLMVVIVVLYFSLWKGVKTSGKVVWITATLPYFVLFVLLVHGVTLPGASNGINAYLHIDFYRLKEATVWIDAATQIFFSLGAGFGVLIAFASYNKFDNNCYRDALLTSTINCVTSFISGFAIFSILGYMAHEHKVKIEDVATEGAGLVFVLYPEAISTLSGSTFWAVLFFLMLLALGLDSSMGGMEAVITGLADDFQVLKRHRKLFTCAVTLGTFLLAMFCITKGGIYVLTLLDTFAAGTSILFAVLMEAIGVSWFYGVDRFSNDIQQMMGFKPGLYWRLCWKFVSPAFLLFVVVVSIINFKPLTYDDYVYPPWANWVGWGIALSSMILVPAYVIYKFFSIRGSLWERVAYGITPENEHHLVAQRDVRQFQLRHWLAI
Procedure: In vitro Determination of NET Reuptake Inhibition
Cortex from rat brain was collected and homogenised using an Ultra-Turrax T25 and a Dual homogeniser in ice-cold homogenising buffer containing Tris, NaCl and KCl (50 mM, 120 mM and 5 mM, respectively, pH 7.4) prior to dilution to an appropriate protein concentration optimised for specific and non-specific binding. […] Membrane-bound activity was detected by filtration through a Packard Filtermate harvester onto GF/B Unifilterplates, washed with ice-cold Tris-HCl buffer, containing NaCl and KCl (50 mM, 120 mM and 4 mM; pH 7.4; 6×0.5 ml). Filters were allowed to dry for 24 h before adding scintillation fluid. Scintillation fluid was allowed to saturate filters for 24 h before counting in a Topcount scintillation counter. Percentage specific bound and competition binding curves were calculated using S-Plus software (Insightful).

SMILES | pIC50 | NET Reuptake Inhibition
CN1C[C@@H]2C[C@@H]3c4ccccc4Cc4ccc(F)cc4[C@H]3N2C1=O [compound 16, (4aS,13bR,14aS)-6-fluoro-2-methyl-1,4a,9,13b,14,14a-hexahydrodibenzo-[3′,4′:6′,7′]cyclohepta[1′,2′:4,5]pyrrolo[1,2-c]imidazol-3(2H)-one] | < 5.00 | 
N[C@@H]1CO[C@H]2c3cc(F)ccc3Cc3ccccc3[C@H]2C1 [compound 30, (3S,4aR,13bR)-12-fluoro-2,3,4,4a,9,13b-hexahydrodibenzo[3,4:6,7]cyclohepta-[1,2-b]pyran-3-amine] | 6.52 | 
CN(C)[C@@H]1CO[C@H]2c3cc(F)ccc3Cc3ccccc3[C@H]2C1 [compound 32, (3S,4aR,13bR)-12-fluoro-N,N-dimethyl-2,3,4,4a,9,13b-hexahydrodibenzo[3,4:6,7]-cyclohepta[1,2-b]pyran-3-amine] | 7.71 | 
COCC(=O)N1[C@@H](CN(C)C)C[C@@H]2c3ccccc3Cc3ccc(F)cc3[C@H]21 [compound 10, [(2R,3aR,12bS)-11-fluoro-1-(methoxyacetyl)-1,2,3,3a,8,12b-hexahydrodibenzo-[3,4:6,7]cyclohepta[1,2-b]pyrrol-2-yl]-N,N-dimethylmethanamine] | 5.32 | 
CN(C)C[C@H]1C[C@@H]2c3ccccc3Cc3ccc(F)cc3[C@H]2N1 [37a, [(2R,3aR,12bS)-11-fluoro-1,2,3,3a,8,12b-hexahydrodibenzo[3,4:6,7]cyclohepta-[1,2-b]pyr-rol-2-yl]-N,N-dimethylmethanamine] | 8.10 | 
CN(C)C[C@H]1C[C@@H]2c3ccccc3Oc3ccc(F)cc3[C@H]2N1 [compound 17, [(2R,3aR,12bS)-11-fluoro-2,3,3a,12b-tetrahydro-1H-dibenzo[2,3:6,7]oxepino[4,5-b]pyrrol-2-yl]-N,N-dimethylmethanamine] | 8.13 | 
Fc1ccc2c(c1)[C@@H]1[C@H](C[C@H]3CNC(=S)N31)c1ccccc1C2 [compound 3, (4aS,13bR,14aS)-6-fluoro-1,4a,9,13b,14,14a-hexahydrodibenzo[3′,4′:6′,7′]cycloheta[1′,2′:4,5]pyrrolo[1,2-c]imidazole-3(2H)-thione] |  | 5.24
CNC[C@H]1C[C@@H]2c3ccccc3Cc3ccc(F)cc3[C@H]2N1C=O [compound 38, (2R,3aR,12bS)-11-fluoro-2-[(methylamino)methyll]-3,3a,8,12b-tetrahydrodibenzo-[3,4: 6,7]-cyclohepta[1,2-b]pyrrole-1(2H)-carbaldehyde] | 6.31 | 
O=C1CNC[C@H]2C[C@@H]3c4ccccc4Cc4ccc(F)cc4[C@H]3N12 [compound 12, (5aS,14bR,15aR)-7-fluoro-1,2,3,5a,10,14b,15,15a-octahydro-4H-dibenzo[3′,4′:6′,7′]cyclohepta[1′,2′:4,5]pyrrolo[1,2-a]pyrazin-4-one] | 5.46 | 
OCCN1CCN(C[C@H]2C[C@@H]3c4ccccc4Cc4ccc(F)cc4[C@H]3N2)CC1 [43a, 2-(4-{[(2R,3aR,12bS)-11-fluoro-1,2,3,3a,8,12b-hexahydrodibenzo[3,4:6,7]-cyclohepta[1,2-b]pyrrol-2-yl]methyl}-1-piperazinyl)ethanol] | < 5.00 | 
COCCN1[C@@H](CN(C)C)C[C@@H]2c3ccccc3Cc3ccc(F)cc3[C@H]21 [compound 40, [(2R,3aR,12bS)-11-Fluoro-1-(2-methoxyethyl)-1,2,3,3a,8,12b-hexahydrodibenzo-[3,4:6,7]-cyclohepta[1,2-b]pyrrol-2-yl]-N,N-dimethylmethanamine] | 6.32 | 
CN(C)C[C@H]1C[C@@H]2c3ccccc3Cc3ccc(F)cc3[C@H]2N1CCO [compound 39, 2-((2R,3aR,12bS)-2-[(dimethylamino)methyl]-11-fluoro-3,3a,8,12b-tetrahydrodibenzo[3,4:6,7]cyclohepta[1,2-b]pyrrol-1(2H)-yl)ethanol] | 6.90 | 
CN(C)C[C@@H]1C[C@@H]2c3ccccc3Cc3ccc(F)cc3[C@H]2S1(=O)=O [compound 22, [(2S,3aR,12bS)-11-fluoro-1,1-dioxido-3,3a,8,12b-tetrahydro-2H-dibenzo[3,4:6,7]-cyclohepta[1,2-b]thien-2-yl]-N,N-dimethylmethanamine] | 5.32 | 
COC(=O)N1[C@@H](CN(C)C)CC[C@@H]2c3ccccc3Cc3ccc(F)cc3[C@H]21 [compound 45, Methyl(2R,4aR,13bS)-2-[(dimethylamino)methyl]-12-fluoro-2,3,4,4a,9,13b-hexahydro-1H-dibenzo[3,4:6,7]cyclohepta[1,2-b]pyridine-1-carboxylate] | 6.10 | 
CN1C[C@@H]2C[C@@H]3c4ccccc4Cc4ccc(F)cc4[C@H]3N2C1 [compound 1, (4aS,13bR,14aS)-6-fluoro-2-methyl-1,2,3,4a,9,13b,14,14a-octahydrodibenzo-[3′,4′:6′,7′]cyclohepta[1′,2′:4,5]pyrrolo[1,2-c]imidazole] | 6.94 | 
CN(C)C[C@H]1C[C@@H]2c3ccccc3Cc3ccc(F)cc3[C@H]2N1C [compound 5, [(2R,3aR,12bS)-11-fluoro-1-methyl-1,2,3,3a,8,12b-hexahydrodibenzo[3,4:6,7]-cyclohepta[1,2-b]pyrrol-2-yl]-N,N-dimethylmethanamine] | 6.54 | 
CN1CC(=O)N2[C@@H](C[C@@H]3c4ccccc4Cc4ccc(F)cc4[C@H]32)C1 [compound 4, (5aS,14bR,15aS)-7-fluoro-2-methyl-1,2,3,5a,10,14b,15,15a-octahydro-4H-dibenzo[3′,4′:6′,7′]cyclohepta[1′,2′:4,5]pyrrolo[1,2-a]pyrazin-4-one] |  | <5
CN(C)C[C@H]1C[C@@H]2c3ccccc3Cc3ccc(F)cc3[C@H]2S1 [compound 23, [(2R,3aR,12bS)-11-fluoro-3,3a,8,12b-tetrahydro-2H-dibenzo[3,4:6,7]cyclohepta-[1,2-b]thien-2-yl]-N,N-dimethylmethanamine] | 7.55 | 
CSC1=NC[C@H]2C[C@@H]3c4ccccc4Cc4ccc(F)cc4[C@H]3N12 [compound 9, (4aS,13bR,14aR)-6-fluoro-3-(methylsulfanyl)-1,4a,9,13b,14,14a-hexahydrodibenzo[3′,4′:6′,7′]cyclohepta[1′,2′:4,5]pyrrolo[1,2-c]imidazole] | 5.40 | 
CN(C)CC1CO[C@@H]2c3cc(F)ccc3Cc3ccccc3[C@@H]12 (mixture of isomers) [compound 47, [(3aR,12bS)-11-fluoro-3,3a,8,12b-tetrahydro-2H-dibenzo[3,4:6,7]cyclohepta[1,2-b]furan-3-yl]-N,N-dimethylmethanamine] | 7.96 | 
CN(C)CC1CO[C@H]2c3cc(F)ccc3Cc3ccccc3[C@@H]12 (mixture of isomers) [compound 48, [(3aR,12bR)-11-fluoro-3,3a,8,12b-tetrahydro-2H-dibenzo[3,4:6,7]cyclohepta[1,2-b]furan-3-yl]-N,N-dimethylmethanamine] | 6.65 | 
CN1C[C@H]2C[C@@H]3c4ccccc4Cc4ccc(F)cc4[C@H]3N2C1=O [compound 7, (4aS,13bR,14aR)-6-fluoro-2-methyl-1,4a,9,13b,14,14a-hexahydrodibenzo-[3′,4′:6′,7′]cyclohepta[1′,2′:4,5]pyrrolo[1,2-c]imidazol-3(2H)-one] | 6.05 | 
O=C1NC[C@@H]2C[C@@H]3c4ccccc4Cc4ccc(F)cc4[C@H]3N12 [compound 15, (4aS,13bR,14aS)-6-fluoro-1,4a,9,13b,14,14a-hexahydrodibenzo[3′,4′:6′,7′]-cyclohepta[1′,2′:4,5]pyrrolo[1,2-c]imidazol-3(2H)-one] | 5.62 | 
OCCN1CCN(C[C@H]2C[C@@H]3c4ccccc4Oc4ccc(F)cc4[C@H]3N2)CC1 [compound 19, 2-(4-{[(2R,3aR,12bS)-11-fluoro-2,3,3a,12b-tetrahydro-1H-dibenzo[2,3:6,7]-oxepino[4,5-b]pyrrol-2-yl]methyl}-1-piperazinyl)ethanol] | < 5.00 | 
OC1CCN(C[C@H]2C[C@@H]3c4ccccc4Oc4ccc(F)cc4[C@H]3N2)C1 (stereo partly drawn) [compound 20, 1-{[(2R,3aR,12bS)-11-fluoro-2,3,3a,12b-tetrahydro-1H-dibenzo[2,3:6,7]oxepino-[4,5-b]pyrrol-2-yl]methyl}-3-pyrrolidinol] | 6.38 | 
CNC[C@H]1CC[C@@H]2c3ccccc3Cc3ccc(F)cc3[C@H]2O1 [compound 46, [(2R,4aR,13bS)-12-fluoro-2,3,4,4a,9,13b-hexahydrodibenzo[3,4:6,7]cyclohepta-[1,2-b]pyran-2-yl]-N-methylmethanamine] | 6.40 | 
CN(C)C[C@@H]1C[C@@H]2c3ccccc3Cc3ccc(F)cc3[C@H]2[S@@+]1[O-] [compound 26, [(2S,3aR,12bS)-11-fluoro-1-oxido-3,3a,8,12b-tetrahydro-2H-dibenzo[3,4:6,7]-cyclohepta[1,2-b]thien-2-yl]-N,N-dimethylmethanamine] | < 5.00 | 
CC(=O)N1[C@@H](CN(C)C)C[C@@H]2c3ccccc3Cc3ccc(F)cc3[C@H]21 [36b, [(2R,3aR,12bS)-1-acetyl-11-fluoro-1,2,3,3a,8,12b-hexahydrodibenzo[3,4:6,7]-cyclohepta[1,2-b]pyrrol-2-yl]-N,N-dimethylmethanamine] | 5.41 | 
Fc1ccc2c(c1)[C@H]1N[C@@H](CN3CCOCC3)C[C@@H]1c1ccccc1C2 [compound 42, (2R,3aR,12bS)-11-fluoro-2-(4-morpholinylmethyl)-1,2,3,3a,8,12b-hexahydrodibenzo[3,4:6,7]cyclohepta[1,2-b]pyrrole] | 5.26 | 

tested on: not given; assay: not given

SMILES | melting point
N[C@@H]1CO[C@H]2c3cc(F)ccc3Cc3ccccc3[C@H]2C1 [compound 30, (3S,4aR,13bR)-12-fluoro-2,3,4,4a,9,13b-hexahydrodibenzo[3,4:6,7]cyclohepta-[1,2-b]pyran-3-amine] | 74 to 76 °C
O=C1CO[C@H]2c3cc(F)ccc3Cc3ccccc3[C@H]2C1 [compound 31, (4aR,13bR)-12-fluoro-4,4a,9,13b-tetrahydrodibenzo[3,4:6,7]cyclohepta[1,2-b]-pyran-3(2H)-one] | 146 to 148 °C
